Reference: US20040181820A1, “Nucleic acids for transforming fish cells and methods for their use” (priority 2001, published 2004)
Like-named read-outs stand apart in the source and are kept apart here.

Legend:
[1] = system: rainbow trout MT promoter; assay: pMT-CAT reporter in medaka hatchlings with and without zinc (Example 14); assay type: in vivo; conditions: medaka injected with pMT-CAT plasmid, stimulated with zinc vs unstimulated
Description: The activity of the rainbow trout MT promoter was examined by microinjecting plasmids containing pMT operably linked to the CAT reporter into fertilized eggs of medaka, as described in Inoue, et al., Supra. CAT activities were determined in hatchlings with and without stimulation with zinc. Only small trace levels of CAT activity were detected in unstimulated fish, but CAT activity increased in fish stimulated with zinc.

fish cells = assay: Zinc induction of metallothionein promoter in fish cells (Example 14); assay type: cell-based; conditions: 100 μM zinc dose
EPC cells = conditions: 100, 150, or 200 μM
Description: Persistence of a DNA suicide vector (constructed according to Example 21) in transfected cells was assessed by a reverse transcriptase reaction coupled to PCR (RT-PCR). […] Approximately 24 hours after transfection, the cells were treated with non-toxic concentrations of ZnCl2 (100, 150, or 200 μM). Control cells were left untreated.
At 48 hours after the ZnCl2 addition, total RNA was isolated and an RT-PCR assay using IHNV-G specific primers (5′-[sequence]-3′ provided by SEQ. ID. NO: 2 and 5′-[sequence] [sequence]-3′ provided by SEQ. ID. NO: 3) was performed. PCR conditions were: 94° C. 30 sec, 55° C. 1 min and 72° C. 2 min.

rainbow trout fry = conditions: for mortality of rainbow trout fry: 48 hours, fry 0.8 g
Description: Three different concentrations of ZnCl2 (1 μM, 10 μM, 100 μM) were assayed and analyzed for their toxic effects in rainbow trout fry (0.8 g).
Different concentrations of ZnCl2(10 mM, 5 mM, 2.5 mM, 1 mM, 100 μM, […] and 1 μM) were assayed and observed for their toxic effect in rainbow trout. […] After 30 days post-challenge, the correct dose (10 μM ZnCl2) is added to 90 fish per treatment. After 48 hours, PCR analysis with IHNV G and M specific primers is performed to verify that the DNA vaccines have been totally eliminated from muscle tissue of the vaccinated and Zinc exposed fish.

[2] = system: epithelioma papulosum cyprini cells (EPC)
Description: In vitro experiments in epithelioma papulosum cyprini cells (EPC) were performed to verify the mechanisin of action of the “suicide vectors”.
Cell transfection assays were made using Lipofectamine Plus following the instructions of the manufacturer (Gibco, BRL, Gaithersburg, Md.). After 48 hours, the cells were treated with 100 μM ZnCl2, an inducer of the MT promoter.
(100 μM). Cells transfected with the different constructs were left uninduced (a,d) or were treated with […] of ZnCl2 at 48 h. post-transfection (b,c,e,f).

SMILES | CAT activity in hatchlings [1] | toxicity in fish cells (fish cells) | nucleic acid expression mediated by the metallothionein promoter (fish cells; fish cells) | toxicity of ZnCl2 to transfected EPC cells (EPC cells) | mortality of rainbow trout fry (rainbow trout fry; 1 μM and 10 μM in water) | mortality of rainbow trout fry (rainbow trout fry; 100 μM in water) | concentrations toxic for rainbow trout fry (rainbow trout fry; fry 1 g) | effect of ZnCl2 on untransfected EPC control cells [2]
[Zn] [zinc] | increased | without toxicity | induces | – | – | – | – | –
[Cl-].[Cl-].[Zn+2] [ZnCl2] | – | – | – | non-toxic | no mortalities | all fish immersed in 100 μM ZnCl2 had died | higher than 10 μM | not obviously affected
